Where “and” joins values, the source holds several entries; their conditions need not be identical. Identical values can stand only once.
What was measured:
Conditions in all cases: incubation time: 72 h
DU-4475 [1] = assay: normalised viability (% of control), CellTiter-Blue; higher = more viable cells (about 100 = DMSO control)
Description: (§1)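 DSRT, CellTiter-Blue viability, 72 h incubation. Signal is normalised to DMSO and benzethonium chloride controls. Value is the normalised response at dose 9.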

CAL-148 [2] = assay: as above
Description: as §1

CAL-85-1 [3] = assay: as above
Description: as §1

CAL-51 [4] = assay: as above
Description: as §1

MDA-MB-453 [5] = assay: as above
Description: as §1

HDQ-P1 [6] = assay: as above
Description: as §1

DU-4475 [7] = assay: as above; remark: listed apart in the source
Description: (§2)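 DSRT, CellTiter-Blue viability, 72 h incubation. Signal is normalised to DMSO and benzethonium chloride controls. Value is the normalised response at dose 6.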

CAL-148 [8] = assay: as above; remark: listed apart in the source
Description: as §2

CAL-85-1 [9] = assay: as above; remark: listed apart in the source
Description: as §2

CAL-51 [10] = assay: as above; remark: listed apart in the source
Description: as §2

MDA-MB-453 [11] = assay: as above; remark: listed apart in the source
Description: as §2

DU-4475 [12] = assay: as above; remark: listed apart in the source
Description: (§3)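 DSRT, CellTiter-Blue viability, 72 h incubation. Signal is normalised to DMSO and benzethonium chloride controls. Value is the normalised response at dose 7.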

CAL-148 [13] = assay: as above; remark: listed apart in the source
Description: as §3

CAL-85-1 [14] = assay: as above; remark: listed apart in the source
Description: as §3

CAL-51 [15] = assay: as above; remark: listed apart in the source
Description: as §3

MDA-MB-453 [16] = assay: as above; remark: listed apart in the source
Description: as §3

HDQ-P1 [17] = assay: as above; remark: listed apart in the source
Description: as §3

CAL-148 [18] = assay: as above; remark: listed apart in the source
Description: (§4)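 DSRT, CellTiter-Blue viability, 72 h incubation. Signal is normalised to DMSO and benzethonium chloride controls. Value is the normalised response at dose 8.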

CAL-85-1 [19] = assay: as above; remark: listed apart in the source
Description: as §4

CAL-51 [20] = assay: as above; remark: listed apart in the source
Description: as §4

MDA-MB-453 [21] = assay: as above; remark: listed apart in the source
Description: as §4

HDQ-P1 [22] = assay: as above; remark: listed apart in the source
Description: as §4

HCC1937 [23] = assay: normalised response (% of control), CellTiter-Glo; higher = more viable cells (100 = DMSO, 0 = benzethonium chloride kill control)
Description: (§5)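 DSRT, 72 h incubation, CellTox Green / CellTiter-Glo readout. Signal is normalised to DMSO and benzethonium chloride controls. Value is the normalised response at the highest dose.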

Hs578T [24] = assay: as above
Description: as §5

SK-BR-3 = assay: as above
Description: as §5

MDA-MB-468 [25] = assay: as above
Description: as §5

DU-4475 [26] = assay: as above
Description: as §5

CAL-148 [27] = assay: as above
Description: as §5

MFM-223 [28] = assay: as above
Description: as §5

MDA-MB-436 [29] = assay: as above
Description: as §5

BT-474 [30] = assay: as above
Description: as §5

CAL-120 [31] = assay: as above
Description: as §5

MCF-10A [32] = assay: as above
Description: as §5

CAL-85-1 [33] = assay: as above
Description: as §5

HCC1599 [34] = assay: as above
Description: as §5

BT-549 [35] = assay: as above
Description: as §5

MDA-MB-231 [36] = assay: as above
Description: as §5

CAL-51 [37] = assay: as above
Description: as §5

MDA-MB-453 [38] = assay: as above
Description: as §5

HCC1143 [39] = assay: as above
Description: as §5

HDQ-P1 [40] = assay: as above
Description: as §5

HCC1937 [41] = assay: normalised response (% of control), CellTox Green; higher = less cell death (100 = DMSO, 0 = benzethonium chloride kill control)
In short: (§6)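 Breast cancer cell lines, seeded at 20 µl suspension per well, were incubated for 72 h in 384-well plates containing compound at 5 concentrations. These concentrations rose in 10-fold steps over a 10,000-fold range set for each compound. CellTox Green fluorescence (485/520 nm) was read, then CellTiter-Glo luminescence after 10 min at room temperature, and each plate was normalised to 0.1 % DMSO (100) and a positive kill control (0). Values are normalised signals, each at one concentration.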

Hs578T [42] = assay: as above
In short: as §6

MDA-MB-468 [43] = assay: as above
In short: as §6

DU-4475 [44] = assay: as above
In short: as §6

CAL-148 [45] = assay: as above
In short: as §6

MFM-223 [46] = assay: as above
In short: as §6

MDA-MB-436 [47] = assay: as above
In short: as §6

BT-474 [48] = assay: as above
In short: as §6

CAL-120 [49] = assay: as above
In short: as §6

MCF-10A [50] = assay: as above
In short: as §6

CAL-85-1 [51] = assay: as above
In short: as §6

HCC1599 [52] = assay: as above
In short: as §6

BT-549 [53] = assay: as above
In short: as §6

MDA-MB-231 [54] = assay: as above
In short: as §6

CAL-51 [55] = assay: as above
In short: as §6

MDA-MB-453 [56] = assay: as above
In short: as §6

HCC1143 [57] = assay: as above
In short: as §6

HDQ-P1 [58] = assay: as above
In short: as §6

CN(Cc1cnc2nc(N)nc(N)c2n1)c1ccc(C(=O)N[C@@H](CCC(=O)O)C(=O)O)cc1 [Methotrexate] (10000 nM)
normalised viability (DU-4475 [1]): 102%
normalised viability (CAL-148 [2]): 69.1%
normalised viability (CAL-85-1 [3]): 65.3%
normalised viability (CAL-51 [4]): 39.2%
normalised viability (MDA-MB-453 [5]): 90%
normalised viability (HDQ-P1 [6]): 99.7%

C=CCN(/C=C1/C(=O)O[C@H](COC)[C@@]2(C)C1=C(O)C(=O)C1=C2[C@H](OC(C)=O)C[C@]2(C)C(=O)CC[C@@H]12)CC=C [PX-866] (10000 nM)
normalised viability (DU-4475 [1]): 88%
normalised viability (CAL-148 [2]): 112%
normalised viability (CAL-85-1 [3]): 88.9%
normalised viability (CAL-51 [4]): 97.8%
normalised viability (MDA-MB-453 [5]): 70.2%
normalised viability (HDQ-P1 [6]): 53.2%

O=C(CCCCCCC(=O)Nc1ccccc1)NO [Vorinostat] (300 nM)
normalised viability (DU-4475 [7]): 97.4% and 88.9%
normalised viability (CAL-148 [8]): 85.6% and 94.9%
normalised viability (CAL-85-1 [9]): 95.3% and 104%
normalised viability (CAL-51 [10]): 116% and 104%
normalised viability (MDA-MB-453 [11]): 82.8% and 81.7%

C=CCN(/C=C1/C(=O)O[C@H](COC)[C@@]2(C)C1=C(O)C(=O)C1=C2[C@H](OC(C)=O)C[C@]2(C)C(=O)CC[C@@H]12)CC=C [PX-866] (1000 nM)
normalised viability (DU-4475 [12]): 102%
normalised viability (CAL-148 [13]): 99.4%
normalised viability (CAL-85-1 [14]): 95%
normalised viability (CAL-51 [15]): 112%
normalised viability (MDA-MB-453 [16]): 101%
normalised viability (HDQ-P1 [17]): 86.3%

COc1c2occc2cc2ccc(=O)oc12 [Methoxsalen] (1000 nM)
normalised viability (DU-4475 [12]): 112%
normalised viability (CAL-148 [13]): 106%
normalised viability (CAL-85-1 [14]): 104%
normalised viability (CAL-51 [15]): 100%
normalised viability (MDA-MB-453 [16]): 97.9%
normalised viability (HDQ-P1 [17]): 96.9%

O=C(CCCCCCC(=O)Nc1ccccc1)NO [Vorinostat] (3000 nM)
normalised viability (CAL-148 [18]): 49.7% and 59.7%
normalised viability (CAL-85-1 [19]): 59.5% and 66.1%
normalised viability (CAL-51 [20]): 101% and 94.8%
normalised viability (MDA-MB-453 [21]): 12.2% and 9.84%
normalised viability (HDQ-P1 [22]): 68.1% and 62.5%

CC[C@H](CO)Nc1nc(NCc2ccccc2)c2ncn(C(C)C)c2n1 [Seliciclib] (10000 nM)
normalised response (HCC1937 [23]): 92.4%
normalised response (Hs578T [24]): 96.4%
normalised response (SK-BR-3): 86.2%
normalised response (MDA-MB-468 [25]): 87.1%
normalised response (DU-4475 [26]): 97.7%
normalised response (CAL-148 [27]): 117%
normalised response (MFM-223 [28]): 89%
normalised response (MDA-MB-436 [29]): 79.9%
normalised response (BT-474 [30]): 82.1%
normalised response (CAL-120 [31]): 92%
normalised response (MCF-10A [32]): 95.9%
normalised response (CAL-85-1 [33]): 83.9%
normalised response (HCC1599 [34]): 95.9%
normalised response (BT-549 [35]): 80.1%
normalised response (MDA-MB-231 [36]): 81.1%
normalised response (CAL-51 [37]): 78.7%
normalised response (MDA-MB-453 [38]): 132%
normalised response (HCC1143 [39]): 96.3%
normalised response (HDQ-P1 [40]): 84.4%
normalised response (HCC1937 [41]): 105%
normalised response (Hs578T [42]): 84.9%
normalised response (MDA-MB-468 [43]): 154%
normalised response (DU-4475 [44]): 105%
normalised response (CAL-148 [45]): 95.6%
normalised response (MFM-223 [46]): 68.6%
normalised response (MDA-MB-436 [47]): 91.4%
normalised response (BT-474 [48]): 100%
normalised response (CAL-120 [49]): 97.2%
normalised response (MCF-10A [50]): 108%
normalised response (CAL-85-1 [51]): 62.7%
normalised response (HCC1599 [52]): 110%
normalised response (BT-549 [53]): 91.5%
normalised response (MDA-MB-231 [54]): 108%
normalised response (CAL-51 [55]): 99.4%
normalised response (MDA-MB-453 [56]): 108%
normalised response (HCC1143 [57]): 84.5%
normalised response (HDQ-P1 [58]): 106%

CN(Cc1cnc2nc(N)nc(N)c2n1)c1ccc(C(=O)N[C@@H](CCC(=O)O)C(=O)O)cc1 [Methotrexate] (1000 nM)
normalised viability (DU-4475 [12]): 110%
normalised viability (CAL-148 [13]): 67.8%
normalised viability (CAL-85-1 [14]): 57.4%
normalised viability (CAL-51 [15]): 42.5%
normalised viability (MDA-MB-453 [16]): 84.2%
normalised viability (HDQ-P1 [17]): 77.6%

CC[C@H](CO)Nc1nc(NCc2ccccc2)c2ncn(C(C)C)c2n1 [Roscovitine] (1000 nM)
normalised viability (DU-4475 [12]): 101%
normalised viability (CAL-148 [13]): 92.1%
normalised viability (CAL-85-1 [14]): 87.8%
normalised viability (CAL-51 [15]): 105%
normalised viability (MDA-MB-453 [16]): 96.2%
normalised viability (HDQ-P1 [17]): 104%

CCN(CC)CCCC(C)Nc1ccnc2cc(Cl)ccc12 (centres undefined) [Chloroquine] (99 nM)
normalised viability (DU-4475 [12]): 110%
normalised viability (CAL-148 [13]): 99.1%
normalised viability (CAL-85-1 [14]): 81.9%
normalised viability (CAL-51 [15]): 91%
normalised viability (MDA-MB-453 [16]): 99.7%
normalised viability (HDQ-P1 [17]): 132%

Source: the supplement of paper PMC4862054
